These results are taken from ChEMBL document CHEMBL4619799, “Mechanistic Insight into Antiretroviral Potency of 2'-Deoxy-2'-β-fluoro-4'-azidocytidine (FNC) with a Long-Lasting Effect on HIV-1 Prevention” (J Med Chem, 2020).

The source made the active and inactive calls. The calls are words filed in the database; no cut-off is given here.

For series [1], the system named is Human immunodeficiency virus 1. In words: Antiviral activity against JRFL pseudotyped HIV1 infected in human Hut/CCR5 cells assessed as time needed to reach 50% reduction of virus infection at 10 nM incubated with cells for 4 hrs prior to compound washout followed by viral infection and measured after 72 hrs by luciferase reporter gene assay. It is filed as functional. On the technique in general: A reporter such as luciferase makes a cellular process visible.

Series [2] can be described thus: AUC (0 to 24 hrs) in monkey at 6 mg/kg, po administered as single dose by LC-MS/MS analysis. The class given is ADME, organism-based, Macaca mulatta. Details: dose 6 mg/kg, time < 24 hr, route oral. Particulars: rhesus monkey, in vivo.
For series [3], the target named is Virion infectivity factor (Human immunodeficiency virus type 1 group M subtype B (isolate NY5)(HIV-1)) (UniProt P12504). In words: Inhibition of HIV1 HA-tagged Vif expressed in HEK293T cells co-expressing Myc-tagged pcDNA-APOBEC3G assessed as reduction in Vif-mediated A3G degradation at 10 nM measured after 48 hrs by Western blot analysis. The class given is cell-based. Particulars: Human immunodeficiency virus 1, HEK-293T. For orientation: In western blotting, separated proteins are transferred to a membrane and probed.

Series [4] in a line: Effect on HLA-DR surface expression in IL2-induced human PBMC-derived CD14-positive monocytes at 100 nM measured after 48 hrs by immunostaining based flow cytometry. The class given is ADME. Particulars: 0.1 µM.
Series [5] deals with Human immunodeficiency virus 1. In words: Antiviral activity against JRFL pseudotyped HIV1 infected in human Hut/CCR5 cells assessed as time needed to reach 50% reduction of virus infection at 0.1 nM incubated with cells for 4 hrs prior to compound washout followed by viral infection and measured after 72 hrs by luciferase reporter gene assay. The class given is functional.

Series [6] in a line: Cmax in monkey plasma at 6 mg/kg, po administered as single dose measured after 24 hrs by LC-MS/MS analysis. Details: dose 6 mg/kg, route oral. The class given is ADME, organism-based, Macaca mulatta. The following applies: rhesus monkey.
A short description of series [7]: AUC (0 to 24 hrs) in monkey plasma at 1 mg/kg, po administered as single dose by LC-MS/MS analysis. Particulars: rhesus monkey. Details: time < 24 hr, dose 1 mg/kg, route oral. The class given is ADME, organism-based, Macaca mulatta.
The nature of series [8]: Binding affinity to HIV1 Vif and CBFbeta-ELOB-ELOC complex (unknown origin) by CM5 chip based assay.
Series [9] is described as follows: Effect on HLA-DR surface expression in IL2-induced human PBMC-derived CD4-positive T cells at 100 nM measured after 48 hrs by immunostaining based flow cytometry. The class given is ADME. The following applies: 0.1 µM. Background: Flow cytometry measures light scatter and fluorescence of single cells or particles in a stream.
Series [10] has as its system Human immunodeficiency virus 1. In words: Synergistic antiviral activity against JRFL pseudotyped HIV1 infected in human Hut/CCR5 cells assessed as combination index in presence of dolutegravir by luciferase reporter gene based assay. It is filed as functional.

Sequence of Virion infectivity factor (Human immunodeficiency virus type 1 group M subtype B (isolate NY5)(HIV-1)) (P12504 whole entry): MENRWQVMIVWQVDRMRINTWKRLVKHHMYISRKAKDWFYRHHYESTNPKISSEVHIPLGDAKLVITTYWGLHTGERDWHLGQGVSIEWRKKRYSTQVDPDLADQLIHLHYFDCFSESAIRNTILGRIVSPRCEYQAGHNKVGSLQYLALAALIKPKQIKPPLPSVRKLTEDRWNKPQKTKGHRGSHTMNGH

In the case of `[N-]=[N+]=N[C@]1(CO)O[C@@H](n2ccc(N)nc2=O)[C@@H](F)[C@@H]1O` [RO-0622], the Time in series [1] lay in the range of 123.06 to 123.1 h. In series [2], this compound showed an exposure AUC(0-t) at 24 h of 7.58 µM·h. Moreover, the inhibition entry in series [3] is “Active”. In series [4], the Activity result is “Non-Toxic”. In addition, in series [5], the Time lay within 68.6 to 68.63 h. The same compound displayed a Cmax in series [6] of 6.5 nM. This compound also displayed an AUC(0-t) at 24 h in series [7] of 0.499 µM·h. Besides, binding in [8] was put at a Kd of 87 nM. Also, in series [9], the Activity entry was “Non-Toxic”. Moreover, in series [10], the CI50 came to 0.01704, the CI75 was found to be 0.01929, the CI90 is given as 0.02209 and the CI95 was found to be 0.0244.

Broadly, the AUC(0-t) is exposure summed from dosing to a finite time, without extrapolation to infinity. As usually defined, the Cmax is the highest concentration seen after dosing. In general, Kd refers to the equilibrium constant for the complex coming apart.
